Experimental data published in PMC12489694, “Design, Synthesis, Antidiabetic Activity and In Silico Studies of New Hydrazone Derivatives Derived from Acetohexamide” (ACS Omega, 2025).
Entries after “also recorded” stand apart in the source; their conditions may differ. Like-named read-outs stand apart in the source and are kept apart here.

What was measured:
HEK293 cells = test: MTT cytotoxicity assay on HEK293 cells; format: cell-based, human; conditions: for IC50: Homo sapiens, HEK293, 24 h exposure, 12.5–100 μM; for cytotoxic effects on healthy HEK293 cells (in words): 24 h, up to 100 μM
Description: The HEK293 was used for cell culture studies and obtained from the American Type Culture Collection (ATCC). Cells were cultured in RPMI-1640 cell medium supplemented with 10% fetal calf serum (FBS) and 1% penicillin/streptomycin. Cells were seeded 6 × 10^5/mL density into 96 well cell culture plates and incubated in a CO2 incubator at 37 °C. The cells were exposed to different chemical concentrations (100, 50, 25 and 12,5 μM) for 24 h after reaching a confluency of 80%.
The MTT assay was used to assess the cell viability. The MTT assay included putting the cells in an MTT solution (at 1 mg/mL concentration) and incubating them for 1 h at 37 °C. The absorbance was measured at a wavelength of 570 nm using an Epoch microplate spectrophotometer.

α-glucosidase [1] = test: α-glucosidase inhibitory activity (p-nitrophenyl-α-D-glucopyranoside method); format: biochemical
Description: After 20 min incubation at 37 °C, 90 μL Na2CO3 (100 mM) was added into the each well to stop the enzymatic reaction. Absorbance of the 96-well microplate reader was recorded at 400 nm. Antidiabetic inhibition activity data were taken in three parallel measurements for four concentrations of each synthesis sample. The results of the biological activity analyses are presented as IC50 values.

α-amylase = target: T1, α-amylase (Sus scrofa, UniProt P00690); test: α-amylase inhibitory activity (spectroscopic starch/Lugol method); format: biochemical
T1 sequence (P00690 16-511): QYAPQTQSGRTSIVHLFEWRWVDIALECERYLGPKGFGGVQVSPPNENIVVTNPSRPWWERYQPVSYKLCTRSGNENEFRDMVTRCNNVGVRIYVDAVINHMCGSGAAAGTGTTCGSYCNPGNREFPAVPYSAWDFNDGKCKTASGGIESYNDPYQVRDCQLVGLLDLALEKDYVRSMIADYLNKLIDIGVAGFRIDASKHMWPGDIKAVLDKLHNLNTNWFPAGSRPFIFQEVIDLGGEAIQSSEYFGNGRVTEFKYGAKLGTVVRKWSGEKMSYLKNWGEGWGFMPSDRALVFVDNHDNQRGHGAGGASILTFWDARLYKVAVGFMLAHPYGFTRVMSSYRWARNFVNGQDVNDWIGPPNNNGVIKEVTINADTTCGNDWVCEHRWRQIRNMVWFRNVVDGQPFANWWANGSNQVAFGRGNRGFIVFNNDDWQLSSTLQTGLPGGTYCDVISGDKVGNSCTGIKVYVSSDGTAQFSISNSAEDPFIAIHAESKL

α-glucosidase [2] = test: α-glucosidase inhibitory activity (p-nitrophenyl-α-D-glucopyranoside method); format: biochemical; remark: listed apart in the source
[3] = mean ± SEM of three parallel measurements, read-out: antidiabetic inhibition activity IC50, α-glucosidase
[4] = no unit in Table 5, same values as Table 2 (there μM), read-out: IC50 value (α-glucosidase), as repeated in docking Table 5

Row | IC50 (α-glucosidase [1]; [3]) [µM] | IC50 (α-glucosidase [1]; [4]) [µM] | Compound | IC50 (HEK293 cells) [µM] | type of inhibition of α-amylase (enzyme kinetic study, Lineweaver–Burk) (α-amylase) | type of inhibition of α-glucosidase (enzyme kinetic study, Lineweaver–Burk) (α-glucosidase [2]) | cytotoxic effects on healthy HEK293 cells (in words) (HEK293 cells)
1 | 45.34 ± 0.36 | 45.34 ± 0.36 | CC(=NNC(=O)c1ccc(F)cc1)c1ccc(S(=O)(=O)NC(=O)NC2CCCCC2)cc1 [compound 3, N-(Cyclohexylcarbamoyl)-4-(1-(2-(4-fluorobenzoyl)-hydrazinylidene)-ethyl)-benzenesulfonamide] | > 100 |  |  | not causing any damage to healthy cells; also recorded: no negative impact on healthy cells
2 | 46.14 ± 0.33 | 46.14 ± 0.33 | CC(=NNC(=O)c1ccc(C)cc1)c1ccc(S(=O)(=O)NC(=O)NC2CCCCC2)cc1 [compound 7, N-(Cyclohexylcarbamoyl)-4-(1-(2-(4-methylbenzoyl)-hydrazinylidene)-ethyl)-benzenesulfonamide] | 61 |  |  | 
3 | 84.97 ± 0.46 | 84.97 ± 0.46 | CC(=NNC(=O)c1ccc(I)cc1)c1ccc(S(=O)(=O)NC(=O)NC2CCCCC2)cc1 [compound 4, N-(Cyclohexylcarbamoyl)-4-(1-(2-(4-iodobenzoyl)-hydrazinylidene)-ethyl)-benzenesulfonamide] | > 100 |  |  | 
4 | 52.25 ± 0.44 | 52.25 ± 0.44 | CC(=NNC(=O)c1ccc(Cl)cc1)c1ccc(S(=O)(=O)NC(=O)NC2CCCCC2)cc1 [compound 14, 4-(1-(2-(4-Chlorobenzoyl)-hydrazinylidene)-ethyl)-N-(cyclohexylcarbamoyl)-benzenesulfonamide] |  |  |  | 
5 | 77.36 ± 0.31 | 77.36 ± 0.31 | CC(=NNC(=O)c1ccc(Br)cc1)c1ccc(S(=O)(=O)NC(=O)NC2CCCCC2)cc1 [compound 5, N-(Cyclohexylcarbamoyl)-4-(1-(2-(4-bromobenzoyl)-hydrazinylidene)-ethyl)-benzenesulfonamide] | > 100 |  |  | 
6 | 40.44 ± 0.23 | 40.44 ± 0.23 | CC(=NNC(=O)c1ccc([N+](=O)[O-])cc1)c1ccc(S(=O)(=O)NC(=O)NC2CCCCC2)cc1 [compound 10, N-(Cyclohexylcarbamoyl)-4-(1-(2-(4-nitrobenzoyl)-hydrazinylidene)-ethyl)-benzenesulfonamide] | > 100 |  |  | not causing any damage to healthy cells; also recorded: no negative impact on healthy cells

Further lines, the compound ahead of its results:

Row | Compound | IC50 (α-glucosidase [1]; [3]) [µM] | IC50 (α-glucosidase [1]; [4]) [µM] | IC50 (HEK293 cells) [µM] | type of inhibition of α-amylase (enzyme kinetic study, Lineweaver–Burk) (α-amylase) | type of inhibition of α-glucosidase (enzyme kinetic study, Lineweaver–Burk) (α-glucosidase [2]) | cytotoxic effects on healthy HEK293 cells (in words) (HEK293 cells)
7 | CC(=NNC(=O)c1cccc(Cl)c1)c1ccc(S(=O)(=O)NC(=O)NC2CCCCC2)cc1 [compound 2, 4-(1-(2-(3-Chlorobenzoyl)-hydrazinylidene)-ethyl)-N-(cyclohexylcarbamoyl)-benzenesulfonamide] | 68.75 ± 0.37 | 68.75 ± 0.37 | > 100 |  |  | 
8 | COc1ccc(C(=O)N/N=C(\C)c2ccc(S(=O)(=O)NC(=O)NC3CCCCC3)cc2)cc1 [compound 8, N-(Cyclohexylcarbamoyl)-4-(1-(2-(4-methoxy)-hydrazinilidene)-ethyl)-benzenesulfonamide] | 38.1 ± 0.8 | 38.1 ± 0.8 |  | uncompetitive | uncompetitive | not causing any damage to healthy cells; also recorded: no negative impact on healthy cells
9 | C/C(=N\NC(=O)c1ccccc1)c1ccc(S(=O)(=O)NC(=O)NC2CCCCC2)cc1 [compound 1, 4-(1-(2-Benzoylhydrazinilidene)-ethyl)-N-(cyclohexylcarbamoyl)-benzenesulfonamide] | 108 ± 0.69 | 108 ± 0.69 | > 100 |  |  | 
10 | C/C(=N\NC(=O)c1cccc2ccccc12)c1ccc(S(=O)(=O)NC(=O)NC2CCCCC2)cc1 [compound 11, 4-(1-(2-(1-Naphthalene)-hydrazinylidene)-ethyl)-N-(cyclocarbamoyl)-benzenesulfonamide] | 57.1 ± 0.78 | 57.1 ± 0.78 | > 100 |  |  | 
11 | CC(=NNC(=O)c1cccc([N+](=O)[O-])c1)c1ccc(S(=O)(=O)NC(=O)NC2CCCCC2)cc1 [compound 9, N-(Cyclohexylcarbamoyl)-4-(1-(2-(3-nitrobenzoyl)-hydrazinylidene)-ethyl)-benzenesulfonamide] | 61.2 ± 0.69 | 61.2 ± 0.69 | 69.2 |  |  | 
12 | CC(=NNC(=O)c1ccccc1[N+](=O)[O-])c1ccc(S(=O)(=O)NC(=O)NC2CCCCC2)cc1 [compound 13, N-(Cyclohexylcarbamoyl)-4-(1-(2-(2-nitrobenzoyl)-hydrazinylidene)-ethyl)-benzenesulfonamide] | 66.38 ± 0.37 | 66.38 ± 0.37 | > 100 |  |  | 
13 | C[C@H]1O[C@H](O[C@H]2[C@H](O)[C@@H](O)[C@@H](O[C@H]3[C@H](O)[C@@H](O)C(O)O[C@@H]3CO)O[C@@H]2CO)[C@H](O)[C@@H](O)[C@@H]1N[C@H]1C=C(CO)[C@@H](O)[C@H](O)[C@H]1O (some centres unmarked) [acarbose, reference compound] |  |  | > 100 |  |  | nontoxic; also recorded: no cytotoxic effects
